Consider 30 sequences from paper PMC5597684, “Prediction and in vitro verification of potential CTL epitopes conserved among PRRSV-2 strains” (Immunogenetics, 2017).

Ends that are not written are not given here.

The target in one assay is T1, SLA-1*04:01 (Sus scrofa, UniProt O19244). Description: pSLA complex stability, scintillation proximity assay (125I-β2m dissociation). Conditions: SPA, 125I-β2m dissociation at 37 °C over 24 h with 200 nM unlabeled β2m, refolded overnight 18 °C with ≈50 μM peptide, average of duplicates, t½ in decimal hours. The class given is binding, swine. The procedure:
(§1) Five SLA class I alleles were used: SLA-1*04:01, SLA-1*07:02, SLA-2*04:01, SLA-2*05:02 and SLA-3*04:01.
(§2) Based on the bioinformatics described above, 53 peptides (purity >85%, GenScript) were acquired for in vitro verification.
(§3) The stability of the pSLA complexes was determined in vitro using a scintillation proximity assay (SPA) employing the principle of ^125I-radiolabeled β2m dissociation as a measure of pSLA complex stability (Harndahl et al. [2011]; Parker et al. [1992b]). Briefly, denatured biotinylated recombinant SLA heavy chains were diluted in PBS/0.1% Lutrol F68 to 50 nM and refolded overnight at 18 °C with 2–10 nM ^125I-radiolabeled β2m and ≈50 μM of the peptide to be tested in streptavidin-coated scintillation 384-well FlashPlate PLUS microplates (SMP410A001PK, PerkinElmer). In case of a binding peptide, a scintillation signal was observed and the off-rate was subsequently determined by increasing the temperature to 37 °C and the addition of an excess of unlabeled β2m (final concentration 200 nM) while continuously monitoring the scintillation signal in a liquid microplate scintillation plate reader (Topcount NXT, PerkinElmer) for 24 h at 37 °C. The off-rate is equivalent to the peptide-specific dissociation rate and serves as a good measure for pSLA complex stability. The stability values reported are the averages of duplicates in half-life (t½) decimal hours.
On to KSGHPHGLLF [ID6], for which the “Stab. (h), measured stability (average dissociation half-life)” value (shortened to “Stab. (h), measured stability”) was found to be 0.1 h.
On the same count and under the same terms, the value for RSTPAIVRWF [ID3] was 0.1 h.

A further assay concerns SLA-1*07:02. The assay is described as above. The settings on record: SPA, 125I-β2m dissociation at 37 °C over 24 h with 200 nM unlabeled β2m, refolded overnight 18 °C with ≈50 μM peptide, average of duplicates, t½ in decimal hours. The class given is binding, swine. Here is the method:
as §1, §2, §3
Turning to TLSNYRRSY [ID15], the “Stab. (h), measured stability” value was determined as 0.3 h.

A further assay deals with T2, SLA-2*04:01 (Sus scrofa, UniProt Q8MHU4). The assay is described as above. The class given is binding, swine. Conditions: SPA, 125I-β2m dissociation at 37 °C over 24 h with 200 nM unlabeled β2m, refolded overnight 18 °C with ≈50 μM peptide, average of duplicates, t½ in decimal hours. The procedure:
as §1, §2, §3
SSAFFLRYF [ID45]: the “Stab. (h), measured stability” value is listed as 0.1 h.

The target in another assay is T1, SLA-1*04:01. Description: pSLA binding affinity, modified ELISA. The arrangement: species or system swine. Conditions: ELISA as above, only one successful affinity measurement, read-out: Aff. (nM), measured affinity (equilibrium dissociation constant). Here is the method:
as §1, §2
(§4) Binding affinity of pSLA complexes was determined in vitro using a modified enzyme-linked immunosorbent assay (ELISA) (Sylvester-Hvid et al. [2002]; Pedersen et al. [2011]). Briefly, 1–2 nM denatured biotinylated recombinant SLA heavy chains were refolded with 15 nM human β2m (hβ2m) and eight fivefold incremental concentrations of the peptide to be tested spanning from 0 to 13 μM. Following obtained equilibrium after two nights of incubation at RT, the samples were transferred to a streptavidin coated 96-well capture plate (436014, Thermo Scientific) for 1½ h of incubation. Mouse-anti-hβ2m, BBM1, and horseradish peroxidase-conjugated goat-anti-mouse IgG (A9917, Sigma-Aldrich) were used as primary and secondary detection antibodies, respectively. Washing steps were performed with 0.05% Tween 20 in PBS. The color reaction of TMB Plus2 (4395A, Kem-En-Tec Diagnostics) was stopped with equivalent amounts of H2SO4 (0.5 M, cat 30144.294, VWR International), and the plates were read at 450–650 nm using a Multiskan EX ELISA reader (Thermo). OD values were converted to measures of affinity (equilibrium dissociation constant, K D) using the prefolded biotinylated […]/HLA-A*02:01 as standard (Kast et al. [1994]), and were again converted to percentile rank scores by the same SLA-specific standard curves that are integrated in NetMHCpan. A minimum of two reliable measurements were aspired for each pSLA combination, and in most cases this was obtained. The results are presented as the range between the minimum and maximum measurements converted to rank scores.
In general terms: ELISA stands for enzyme-linked immunosorbent assay.
Regarding ALATAPDGTY [ID46], the Kd is 607 nM.
On the same count and under the same terms, the result for FTWYQLASY [ID13] reads 92 nM.
As to LSASSQTEY [ID38], the Kd stood at 91 nM.
In the case of MVNTTRVTY [ID29], the Kd worked out at 206 nM.
As to RTILGTNNF [ID1], the Kd is 1030 nM.
On the same count and under the same terms, the value for YSFPGPPFF [ID4] was 37 nM.

Still in this assay, the particulars now being: ELISA, 1–2 nM heavy chain, 15 nM hβ2m, peptide 0 to 13 μM, two nights at RT, average of successful measurements, read-out: Aff. (nM), measured affinity (average equilibrium dissociation constant).
Regarding ASDWFAPRY [ID25], the Kd was found to be 2 nM.
For KVAHNLGFY [ID21], the Kd amounted to 4 nM.
Regarding KVAHNLGFYF [ID10], the Kd turned out to be 122 nM.
On the same count and under the same terms, the result for LSDSGRISY [ID19] reads 10 nM; that for NISAVFQTYY [ID23], 413 nM; that for QVYERGCRWY [ID7], 682 nM.
Same read-out and setting: the value for RTAIGTPVY [ID17] was 57 nM.
In the case of RTAPNEIAF [ID24], the Kd was determined as 4 nM.
The same measure, in the same setting: the value for TTMPSGFELY [ID43] was 576 nM.

A further assay has as its target T2, SLA-2*04:01. Description: pSLA binding affinity, modified ELISA. The settings on record: ELISA as above, only one successful affinity measurement, read-out: Aff. (nM), measured affinity (equilibrium dissociation constant). More on the design: species or system swine. The procedure: as §1, §2, §4
ATQEWLSRMW [ID31]: the Kd came to 50000 nM.
Same read-out and setting: the value for KIFRFGSHKW [ID22] was 9 nM.
The same measure, in the same setting: the result for LSDSGRISY [ID19] reads 4180 nM; that for QVYERGCRWY [ID7], 209 nM; that for RTAIGTPVY [ID17], 385 nM.
On the same count and under the same terms, the result for SSEGHLTSVY [ID34] reads 1690 nM; that for TTMPSGFELY [ID43], 1840 nM.

The same assay, now with this note: ELISA, 1–2 nM heavy chain, 15 nM hβ2m, peptide 0 to 13 μM, two nights at RT, average of successful measurements, read-out: Aff. (nM), measured affinity (average equilibrium dissociation constant).
With ASYVWVPLTW [ID20], the Kd was 17100 nM.
Take FTWYQLASY [ID13]: the Kd was 2 nM.
Still for that read-out and setting: the result for FVLSWLTPW [ID28] reads 3 nM; that for GGNWFHLEW [ID8], 16600 nM; that for LSFSYTAQF [ID12], 73 nM.
The same measure, in the same setting: the result for LTAALNRNRW [ID36] reads 40 nM.
The same measure, in the same setting: the result for MSWRYSCTRY [ID44] reads 15 nM.
With NISAVFQTYY [ID23], the Kd was 862 nM.
Same read-out and setting: the result for WGVYSAIETW [ID48] reads 21400 nM; that for YAQHMVLSY [ID2], 60 nM.
